The results in this text go back to article PMC10269165 (Antimicrobial Agents and Chemotherapy, 2023).

One experiment has as its target AcPMT1 (Ancylostoma duodenale, UniProt A0A0C2DEB6). Briefly: biochemical. It counts as biochemical. The conditions noted are these: for Selectivity index (SI) AcPMT1: IC50^Cytotoxicity/IC50^Enzyme; for IC50: read-out: Mean IC50 ± SEM, Enzyme AcPMT1. The protocol: (§1) The chemical compounds were obtained from the National Cancer Institute/Developmental Therapeutics Program Open Chemical Repository. […] Compounds were individually reconstituted in molecular biology grade dimethyl sulfoxide (DMSO) from Sigma-Aldrich to a stock concentration of 10 mM and stored at −20°C until use. Initial screening was conducted using recombinant HcPMT1 protein as enzyme in the methyltransferase assay, with test compounds at a final concentration of 40 μM. […] To the positive reaction mixture, instead of test compound, an equivalent volume of DMSO was added. In the negative-control reaction mixture, instead of HcPMT1 and test compound, equivalent volumes of 1× transferase buffer and DMSO, respectively, were added. Detection buffer (100 μL) containing fluorescence substrate was added into each reaction mixture. The reactions were prepared in triplicate wells in 96-well plates. The plates were covered in aluminum foil and incubated at room temperature with agitation for 30 min, followed by reading the fluorescence at 380EX/520EM. The mean percent inhibition (MPI) of the test compound on enzymatic activity was calculated using the following formula: MPI = ΔRFUpositive control − ΔRFUcompounds/ΔRFUpositive control × 100, where the positive control is a reaction without compound but with recombinant PMT protein and a volume of DMSO equivalent to that of compound used in test reactions; the negative control is the reaction without protein and compounds, but with volumes of dialysis buffer and DMSO equivalent to protein and compound added in the test reaction mixtures, respectively; ΔRFUpositive control represents the absolute relative fluorescence units (RFU) for the positive control, which equals RFUpositive control – RFUnegative control; and ΔRFUcompounds represents the absolute RFU value for the sample with the compounds, which equals RFUcompounds – RFUnegative control.
(§2) The enzymatic assay was set up as described above, with the respective PMT protein as enzyme.

In a further experiment the target is DvPMT1 (Dictyocaulus viviparus, UniProt A0A0D8Y714). As to the kind of experiment: biochemical. It counts as biochemical. As to conditions: for Selectivity index (SI) DvPMT1: IC50^Cytotoxicity/IC50^Enzyme; for IC50: read-out: Mean IC50 ± SEM, Enzyme DvPMT1. Here is the method:
as §1, §2

For the next experiment, the target named is HcPMT1 (Haemonchus contortus, UniProt U5HK46). As to the kind of experiment: biochemical. The conditions noted are these: for Selectivity index (SI) HcPMT1: IC50^Cytotoxicity/IC50^Enzyme; for IC50: read-out: Mean IC50 ± SEM, Enzyme HcPMT1. It counts as biochemical. The protocol: as §1, §2;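 on Selectivity index (SI) HcPMT1: cytotoxicity IC50 measured in HCT-8 cells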
The target of the next experiment is OdPMT (Oesophagostomum dentatum, UniProt A0A0B1TAL6). As to the kind of experiment: biochemical. Format: biochemical. As to conditions: for Selectivity index (SI) OdPMT: IC50^Cytotoxicity/IC50^Enzyme; for IC50: read-out: Mean IC50 ± SEM, Enzyme OdPMT. Here is the method:
as §1, §2

The target in another experiment is TcPMT (Toxocara canis, UniProt A0A0B2VTW9). Briefly: biochemical. Format: biochemical. The conditions noted are these: for Selectivity index (SI) TcPMT: IC50^Cytotoxicity/IC50^Enzyme; for IC50: read-out: Mean IC50 ± SEM, Enzyme TcPMT. The protocol:
as §1, §2

The next experiment has as its target AsPMT (Ascaris suum, UniProt F1L4B9). It counts as biochemical. The conditions noted are these: for Selectivity index (SI) AsPMT: IC50^Cytotoxicity/IC50^Enzyme; for IC50: read-out: Mean IC50 ± SEM, Enzyme AsPMT. The protocol: as §1, §2
The subject of experiment [1] is AcPMT1+2-complemented pem1Δ/pem2Δ S. cerevisiae. Briefly: Growth inhibition of complemented yeast. Format: cell-based, Saccharomyces cerevisiae. The conditions noted are these: medium with ethanolamine, no choline, day 3; read-out: Mean growth inhibition EC50 ± SEM on complemented yeast, AcPMT1+2. The protocol: (§3) To determine the effect of PMT inhibitors on the growth of PMT- and LacZ-complemented pem1Δpem2Δ S. cerevisiae, the yeast cells were first starved of choline as described above, and the cells were diluted to an OD600 of ~0.6. The PMT-complemented yeast cells were cultured in SG medium (3.4g/L yeast nitrogen base without amino acids, 2% galactose, 30 mg/L histidine, 100 mg/L leucine, 100 mg/L adenine, and 50 mg/L tryptophan) supplemented with 1 mM ethanolamine hydrochloride, while the LacZ-complemented yeast cells were cultured in SG medium supplemented with 1 mM choline chloride. Compounds that depicted cross-inhibitory activity against PMT proteins in vitro were added at various concentrations to the cultures. As a negative control, DMSO (at a final concentration not exceeding 2% [vol/vol]) was added to yeast cultures designated control cultures. The cultures were incubated at 30°C with shaking at 275 rpm for 4 days. On a daily basis during the course of culture, 200-μL portions of culture aliquots were taken, and their OD600s were measured using a microplate reader. In preliminary work, we had observed that the growth of PMT- and LacZ-complemented pem1Δpem2Δ S. cerevisiae plateaued at 3 to 4 days of culture. Therefore, to determine the inhibitory effect of nematode PMT inhibitors on the growth of PMT- and LacZ-complemented pem1Δpem2Δ S. cerevisiae, measurements taken on day 3 were used. The results were presented as percentage of growth rate using the following formula: PGR = growth rate (plus inhibitor)/growth rate (minus inhibitor) × 100 where the percent growth rate (PGR) is the growth rate of inhibitor-treated PMT- or LacZ- complemented Pem1Δpem2Δ S. cerevisiae, considering the growth rate of untreated PMT- or LacZ- complemented Pem1Δpem2Δ S. cerevisiae is 100%; the growth rate = ΔA600^Day 3/ΔA600^Day 0; ΔA600^Day 0 is the absolute value of A600 of PMT- or LacZ- complemented pem1Δ/pem2Δ S. cerevisiae at day 0, which equals the A600 of the culture minus the A600 of the growth medium only; ΔA600^Day 3 is the absolute value of the A600 of PMT- or LacZ complemented pem1Δ/pem2Δ S. cerevisiae at day 3, which equals the A600 of the culture at day 3 minus the A600 of growth medium only; the growth rate (plus inhibitor) is the growth rate of PMT- or -LacZ complemented pem1Δpem2Δ S. cerevisiae in the presence of test compound; and the growth rate (minus inhibitor) is the growth rate of the PMT- or LacZ complemented pem1Δ/pem2Δ S. cerevisiae in the absence of test compound, but with a volume of DMSO equal to that of compound added in the treated culture. The dose-response curves were generated with GraphPad Prism software and IC50 concentrations of the compounds in PMT- and LacZ-complemented yeast cells derived.

Experiment [2] has as its system AsPMT-complemented pem1Δ/pem2Δ S. cerevisiae. As to the kind of experiment: Growth inhibition of complemented yeast. Format: cell-based, Saccharomyces cerevisiae. As to conditions: medium with ethanolamine, no choline, day 3; read-out: Mean growth inhibition EC50 ± SEM on complemented yeast, AsPMT. Here is the method:
as §3

For experiment [3], the system named is DvPMT1+2-complemented pem1Δ/pem2Δ S. cerevisiae. As to the kind of experiment: Growth inhibition of complemented yeast. Format: cell-based, Saccharomyces cerevisiae. The conditions noted are these: medium with ethanolamine, no choline, day 3; read-out: Mean growth inhibition EC50 ± SEM on complemented yeast, DvPMT1+2. Here is the method: as §3
Experiment [4] has as its system LacZ-complemented pem1Δ/pem2Δ S. cerevisiae. Briefly: Growth inhibition of complemented yeast. As to conditions: medium with choline. Format: cell-based, Saccharomyces cerevisiae. Here is the method:
as §3

The test system of experiment [5] is TcPMT-complemented pem1Δ/pem2Δ S. cerevisiae. Briefly: Growth inhibition of complemented yeast. Format: cell-based, Saccharomyces cerevisiae. As to conditions: medium with ethanolamine, no choline, day 3; read-out: Mean growth inhibition EC50 ± SEM on complemented yeast, TcPMT. Here is the method: as §3

Broadly, the IC50 is the point on the concentration scale where inhibition reaches its midpoint. Broadly, the EC50 is the concentration needed to bring the measured effect to its halfway point.
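Wherever Selectivity index (SI) AcPMT1 is given: cytotoxicity IC50 measured in HCT-8 cells.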
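Wherever Selectivity index (SI) AsPMT is given: cytotoxicity IC50 measured in HCT-8 cells.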
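Wherever Selectivity index (SI) DvPMT1 is given: cytotoxicity IC50 measured in HCT-8 cells.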
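Wherever Selectivity index (SI) OdPMT is given: cytotoxicity IC50 measured in HCT-8 cells.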
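Wherever Selectivity index (SI) TcPMT is given: cytotoxicity IC50 measured in HCT-8 cells.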

Chain of AsPMT (F1L4B9 entry or part of it): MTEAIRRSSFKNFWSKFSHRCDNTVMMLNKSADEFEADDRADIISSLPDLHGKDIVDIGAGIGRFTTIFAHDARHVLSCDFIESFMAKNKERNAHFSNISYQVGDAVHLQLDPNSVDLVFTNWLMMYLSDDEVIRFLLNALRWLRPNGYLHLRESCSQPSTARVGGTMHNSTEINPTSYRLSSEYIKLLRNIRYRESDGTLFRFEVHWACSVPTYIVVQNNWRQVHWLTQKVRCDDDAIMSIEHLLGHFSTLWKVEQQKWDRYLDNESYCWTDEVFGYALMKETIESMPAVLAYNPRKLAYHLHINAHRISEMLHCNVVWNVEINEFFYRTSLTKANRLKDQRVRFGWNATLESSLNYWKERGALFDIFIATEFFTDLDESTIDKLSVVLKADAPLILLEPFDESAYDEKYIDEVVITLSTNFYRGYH
Chain of OdPMT (A0A0B1TAL6 entry or part of it): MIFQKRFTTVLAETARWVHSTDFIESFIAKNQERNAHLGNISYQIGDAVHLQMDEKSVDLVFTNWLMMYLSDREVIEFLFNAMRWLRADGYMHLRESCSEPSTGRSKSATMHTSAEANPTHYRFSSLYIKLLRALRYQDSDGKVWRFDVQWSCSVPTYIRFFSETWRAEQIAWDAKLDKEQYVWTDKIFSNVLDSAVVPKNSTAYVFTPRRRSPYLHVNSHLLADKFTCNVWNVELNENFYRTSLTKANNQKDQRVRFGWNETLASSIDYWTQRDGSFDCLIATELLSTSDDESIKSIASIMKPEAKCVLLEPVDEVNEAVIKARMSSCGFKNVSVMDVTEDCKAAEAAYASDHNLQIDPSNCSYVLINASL
Chain of DvPMT1 (A0A0D8Y714 entry or part of it): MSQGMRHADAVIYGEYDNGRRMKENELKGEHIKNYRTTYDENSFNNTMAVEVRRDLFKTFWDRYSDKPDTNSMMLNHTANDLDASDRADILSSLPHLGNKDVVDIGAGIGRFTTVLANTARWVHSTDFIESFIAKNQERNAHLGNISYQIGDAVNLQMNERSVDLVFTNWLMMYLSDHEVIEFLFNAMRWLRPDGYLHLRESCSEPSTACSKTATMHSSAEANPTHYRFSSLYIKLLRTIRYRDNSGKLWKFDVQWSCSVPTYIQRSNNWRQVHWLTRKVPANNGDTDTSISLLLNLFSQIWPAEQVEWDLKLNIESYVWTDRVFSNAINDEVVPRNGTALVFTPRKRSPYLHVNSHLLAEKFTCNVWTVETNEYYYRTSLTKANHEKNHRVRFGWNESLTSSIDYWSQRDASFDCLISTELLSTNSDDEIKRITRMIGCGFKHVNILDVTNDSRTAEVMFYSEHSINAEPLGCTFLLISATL
Chain of AcPMT1 (A0A0C2DEB6 entry or part of it): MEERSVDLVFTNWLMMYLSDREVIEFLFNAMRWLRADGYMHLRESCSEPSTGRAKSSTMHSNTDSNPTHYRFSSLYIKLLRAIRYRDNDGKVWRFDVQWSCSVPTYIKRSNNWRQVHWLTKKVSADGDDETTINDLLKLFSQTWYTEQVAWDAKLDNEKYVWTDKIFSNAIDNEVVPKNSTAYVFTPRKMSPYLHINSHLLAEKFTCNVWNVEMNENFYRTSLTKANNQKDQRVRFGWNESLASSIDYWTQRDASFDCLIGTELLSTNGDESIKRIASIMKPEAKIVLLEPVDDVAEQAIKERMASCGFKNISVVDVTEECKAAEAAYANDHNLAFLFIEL
Chain of TcPMT (A0A0B2VTW9 entry or part of it): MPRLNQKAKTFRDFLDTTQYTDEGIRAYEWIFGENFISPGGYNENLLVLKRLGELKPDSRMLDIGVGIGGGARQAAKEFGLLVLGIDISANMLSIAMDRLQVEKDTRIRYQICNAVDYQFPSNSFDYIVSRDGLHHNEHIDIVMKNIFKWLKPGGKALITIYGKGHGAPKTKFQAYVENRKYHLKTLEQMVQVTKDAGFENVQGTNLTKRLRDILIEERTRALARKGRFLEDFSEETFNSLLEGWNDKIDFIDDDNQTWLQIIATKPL
Chain of HcPMT1 (U5HK46 entry or part of it): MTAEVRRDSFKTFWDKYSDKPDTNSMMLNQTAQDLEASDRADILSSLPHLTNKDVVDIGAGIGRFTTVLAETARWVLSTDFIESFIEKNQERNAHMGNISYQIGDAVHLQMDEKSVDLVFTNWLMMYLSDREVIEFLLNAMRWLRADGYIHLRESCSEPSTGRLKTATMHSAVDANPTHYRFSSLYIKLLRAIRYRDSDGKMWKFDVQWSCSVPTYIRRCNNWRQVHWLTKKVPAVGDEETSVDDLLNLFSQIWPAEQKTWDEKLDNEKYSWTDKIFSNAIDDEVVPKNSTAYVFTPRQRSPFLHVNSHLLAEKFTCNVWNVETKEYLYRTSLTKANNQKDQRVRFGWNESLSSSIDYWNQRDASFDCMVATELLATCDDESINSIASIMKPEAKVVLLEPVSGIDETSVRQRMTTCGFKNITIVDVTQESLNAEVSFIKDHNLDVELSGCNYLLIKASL

As to `CO[C@H]1/C=C/O[C@@]2(C)Oc3c(C)c(O)c4c(O)c(cc(O)c4c3C2=O)NC(=O)/C(C)=C\C=C\[C@H](C)[C@H](O)[C@@H](C)[C@@H](O)[C@@H](C)[C@H](OC(C)=O)[C@@H]1C` [NSC133100], the “Selectivity index (SI) AcPMT1” value at AcPMT1 amounted to 3.23. Besides, the IC50 at AcPMT1 was 31.5 ± 2.25 µM; on DvPMT1 it was 88.2 ± 4.14 µM; on HcPMT1, 27.8 ± 1.71 µM; on OdPMT, 94.7 ± 5.03 µM; on TcPMT, 99.1 ± 9 µM; at AsPMT, 34 ± 2.85 µM. For the same molecule, the “Selectivity index (SI) DvPMT1” value on DvPMT1 is given as 1.15. Moreover, at HcPMT1, the “Selectivity index (SI) HcPMT1” value came out at 3.67. Further, the “Selectivity index (SI) OdPMT” value at OdPMT was 1.07. Further, on TcPMT, the “Selectivity index (SI) TcPMT” value is 1.03. Also, the “Selectivity index (SI) AsPMT” value on AsPMT came out at 3.00. Further, the EC50 in [1] turned out to be 35.1 ± 5.01 µM; in [2] it was 23.4 ± 1.85 µM; in experiment [3], 35.7 ± 3.67 µM; in [5], 60.1 ± 5.85 µM. For the same molecule, the “effect on LacZ-expressing mutant yeast” value in experiment [4] is listed as “no or negligible inhibitory effect”.

Regarding `CO[C@@H]1/C=C\O[C@]2(C)Oc3c(C)c(O)c4c(O)c(c(CN(C)C)c(O)c4c3C2=O)NC(=O)/C(C)=C\C=C[C@@H](C)[C@@H](O)[C@H](C)[C@@H](O)[C@H](C)[C@H](OC(C)=O)[C@@H]1C` [NSC145612], at AcPMT1, the “Selectivity index (SI) AcPMT1” value is 11.05. Also, the 50% inhibitory concentration (IC50) at AcPMT1 is 27.4 ± 2.92 µM; on DvPMT1 it was 55.1 ± 4.46 µM; at HcPMT1, 27.9 ± 1.57 µM; on OdPMT it was 33.2 ± 2.26 µM; at TcPMT it was 109 ± 12.6 µM; at AsPMT, 45.3 ± 1.71 µM. Also, at DvPMT1, the “Selectivity index (SI) DvPMT1” value is on record as 5.49. For the same molecule, on HcPMT1, the “Selectivity index (SI) HcPMT1” value turned out to be 10.83. The “Selectivity index (SI) OdPMT” value at OdPMT is listed as 9.11. The “Selectivity index (SI) TcPMT” value at TcPMT is on record as 2.77. Further, the “Selectivity index (SI) AsPMT” value at AsPMT came out at 6.67. In addition, the EC50 in experiment [1] is 29.3 ± 2.54 µM; in experiment [2], 28.9 ± 4.38 µM; in [3] it was 23 ± 2.15 µM; in experiment [5], 27.2 ± 7.7 µM. Also, the “effect on LacZ-expressing mutant yeast” value in experiment [4] is “no or negligible inhibitory effect”.
